Source: article PMC11378297, “Discovery and Profiling of New Multimodal Phenylglycinamide Derivatives as Potent Antiseizure and Antinociceptive Drug Candidates” (ACS Chemical Neuroscience, 2024)
Where two headings read alike, the source gives them in different places.

What was measured:
[1] = tested on: 6 Hz (44 mA) seizures, mice; test: 6 Hz (44 mA) seizure test; type: in vivo; settings: Mus musculus, ip, pretreatment time 0.5 h
From the text: Both the aforementioned parameters (ED50 and TD50) enabled the calculation of protective indexes (PIs), which reflect the comparative the benefit–risk ratio of these experimental therapeutic agents.
Four mice per group were randomly assigned to each experimental group in the initial screening experiments (each mouse was used just once). Four groups, each with eight animals, received injections of different doses of the investigated substances in order to determine the ED50 or TD50 values. The PIs for the compounds investigated and reference ASMs were calculated by dividing the TD50 value, as determined in the chimney test by the respective ED50 value, as determined in the MES, scPTZ, or 6 Hz (32 mA or 44 mA) tests (PI = TD50/ED50). The PIs are a measure of the potential therapeutic window of the tested agent.
All substances were suspended in Tween 80 (1% aqueous solution) and administered i.p. as a single injection at a volume of 10 mL/kg. On each day of experimentation, fresh solutions were prepared.

[2] = target: T1, TRPA1 (h) (Homo sapiens, UniProt O75762); test: TRPA1 (h) cell based antagonist calcium flux assay; settings: HEK293, human recombinant HEK-293 cell, read-out: % inhibition of control agonist response
T1 construct: Eurofins
Protocol: Using previously described testing methodologies, binding/functional tests were conducted on a commercial basis at Eurofins Laboratories (Poitiers, France) and Eurofins Panlabs Discovery Services Taiwan, Ltd. (New Taipei City, Taiwan); see Table S9 for more information.
Table S9. Radioligand binding and functional assays. […]
TRPA1 (h) transient potential ion channel cell based antagonist calcium flux assay […]
Assays were performed commercially in Eurofins Laboratories (Poitiers, France) or Eurofins Panlabs Discovery Services
Taiwan, Ltd. (New Taipei City, Taiwan).

[3] = target: T2, Voltage-Gated Sodium channel hNav1.1 (Homo sapiens, UniProt P35498); test: human sodium ion channel cell based automated patch clamp assay, hNav1.1
T2 construct: Eurofins Discovery (St. Charles, MO, USA)
Protocol: (§1) Therefore, as a part of the more detailed functional characterization using automated patch clamp method, we tested the influence of (R)-32 on sodium currents mediated by several Navx channels comprising 5 different human subunits, namely, Nav1.1, Nav1.2, Nav1.3, Nav1.6, and Nav1.7, which are involved in both seizure and/or pain modulation.[74],[80],[81] As summarized in Tables S4–S8, (R)-32 starting from 10 μM effectively and in concentration-dependent manner decreased sodium currents mediated by all aforementioned sodium channel subunits. Furthermore, (R)-32 appeared to bind exclusively to sodium channels that are in an inactivated state (see pulse 2 in Tables S4–S8), but not to the channels that are in an open state (pulse 1) (for additional details, see Supporting Information).
(§2) Human sodium ion channels cell based automated patch clamp assay
(§3) Human sodium ion channels cell based automated patch clamp assays: sodium channels exist in, a) a resting or closed state at -120 mV, b) a transient open state that inactivates to c) inactivated state at -10 mV. Sodium current inhibition within 1-2 ms of channel opening at 0 mV is open channel inhibition (pulse 1). In order to completely inactivate the sodium channels and facilitate inactivated state-dependent binding of the drug, the channels were kept at […] ( -10 mV) longer (pulsed for 500 ms) and then stepped back to -120 mV for 10 ms to recover from inactivation into resting or closed state (but the channels that had drug bound to them will not recover from inactivation and will not open) before stepping to -10 mV for 50 ms (pulse 2) to mea sure sodium channels that are available to open. The higher inhibition seen at pulse 2 is due to inactivated state -dependent inhibition. Pulse 1 and 2 are used to investigate drug binding to the open state and inactivated state of the Na channels, respectively. Each concentration of compound is applied for 5 minutes. The results obtained for (R)-32 are summerized in Tables S4–S8.
Table S4. Effect of the (R)-32 on subunit Nav1.1.
Voltage-Gated Sodium channel hNav1.1
(§4) Compound Concentration Measurement % Inhibition
(§5) Data interpretation: Results showing inhibition greater than 50% are considered to represent significant effects of test compound and have been bolded for (R)-32 for better visualization. The studies were carried out in Eurofins Discovery (St. Charles, MO, USA).

[4] = target: T3, Voltage-Gated Sodium channel hNav1.3 (Homo sapiens, UniProt Q9NY46); test: human sodium ion channel cell based automated patch clamp assay, hNav1.3
T3 construct: Eurofins Discovery (St. Charles, MO, USA)
Protocol: as §1, §2
as §3, with “S4–S8. […]” for “S4–S8.”
as §4, §5

[5] = target: T4, Voltage-Gated Sodium channel hNav1.6 (Homo sapiens, UniProt Q9UQD0); test: human sodium ion channel cell based automated patch clamp assay, hNav1.6
T4 construct: Eurofins Discovery (St. Charles, MO, USA)
Protocol: as §1, §2
as §3, with “S4–S8. […]” for “S4–S8.”
as §4, §5

[6] = hNav1.1, Pulse 1 (open state), read-out: % Inhibition Mean
[7] = hNav1.1, Pulse 1 (open state), read-out: % Inhibition n1
[8] = hNav1.1, Pulse 1 (open state), read-out: % Inhibition n2
[9] = hNav1.1, Pulse 2 (inactivated state), read-out: % Inhibition Mean
[10] = hNav1.1, Pulse 2 (inactivated state), read-out: % Inhibition n1
[11] = hNav1.1, Pulse 2 (inactivated state), read-out: % Inhibition n2
[12] = hNav1.3, Pulse 1 (open state), read-out: % Inhibition Mean
[13] = hNav1.3, Pulse 1 (open state), read-out: % Inhibition n1
[14] = hNav1.3, Pulse 1 (open state), read-out: % Inhibition n2
[15] = hNav1.3, Pulse 2 (inactivated state), read-out: % Inhibition Mean
[16] = hNav1.3, Pulse 2 (inactivated state), read-out: % Inhibition n1
[17] = hNav1.3, Pulse 2 (inactivated state), read-out: % Inhibition n2
[18] = hNav1.6, Pulse 1 (open state), read-out: % Inhibition Mean
[19] = hNav1.6, Pulse 1 (open state), read-out: % Inhibition n1
[20] = hNav1.6, Pulse 1 (open state), read-out: % Inhibition n2
[21] = hNav1.6, Pulse 2 (inactivated state), read-out: % Inhibition Mean
[22] = hNav1.6, Pulse 2 (inactivated state), read-out: % Inhibition n1
[23] = hNav1.6, Pulse 2 (inactivated state), read-out: % Inhibition n2

T4 sequence (Q9UQD0 whole entry): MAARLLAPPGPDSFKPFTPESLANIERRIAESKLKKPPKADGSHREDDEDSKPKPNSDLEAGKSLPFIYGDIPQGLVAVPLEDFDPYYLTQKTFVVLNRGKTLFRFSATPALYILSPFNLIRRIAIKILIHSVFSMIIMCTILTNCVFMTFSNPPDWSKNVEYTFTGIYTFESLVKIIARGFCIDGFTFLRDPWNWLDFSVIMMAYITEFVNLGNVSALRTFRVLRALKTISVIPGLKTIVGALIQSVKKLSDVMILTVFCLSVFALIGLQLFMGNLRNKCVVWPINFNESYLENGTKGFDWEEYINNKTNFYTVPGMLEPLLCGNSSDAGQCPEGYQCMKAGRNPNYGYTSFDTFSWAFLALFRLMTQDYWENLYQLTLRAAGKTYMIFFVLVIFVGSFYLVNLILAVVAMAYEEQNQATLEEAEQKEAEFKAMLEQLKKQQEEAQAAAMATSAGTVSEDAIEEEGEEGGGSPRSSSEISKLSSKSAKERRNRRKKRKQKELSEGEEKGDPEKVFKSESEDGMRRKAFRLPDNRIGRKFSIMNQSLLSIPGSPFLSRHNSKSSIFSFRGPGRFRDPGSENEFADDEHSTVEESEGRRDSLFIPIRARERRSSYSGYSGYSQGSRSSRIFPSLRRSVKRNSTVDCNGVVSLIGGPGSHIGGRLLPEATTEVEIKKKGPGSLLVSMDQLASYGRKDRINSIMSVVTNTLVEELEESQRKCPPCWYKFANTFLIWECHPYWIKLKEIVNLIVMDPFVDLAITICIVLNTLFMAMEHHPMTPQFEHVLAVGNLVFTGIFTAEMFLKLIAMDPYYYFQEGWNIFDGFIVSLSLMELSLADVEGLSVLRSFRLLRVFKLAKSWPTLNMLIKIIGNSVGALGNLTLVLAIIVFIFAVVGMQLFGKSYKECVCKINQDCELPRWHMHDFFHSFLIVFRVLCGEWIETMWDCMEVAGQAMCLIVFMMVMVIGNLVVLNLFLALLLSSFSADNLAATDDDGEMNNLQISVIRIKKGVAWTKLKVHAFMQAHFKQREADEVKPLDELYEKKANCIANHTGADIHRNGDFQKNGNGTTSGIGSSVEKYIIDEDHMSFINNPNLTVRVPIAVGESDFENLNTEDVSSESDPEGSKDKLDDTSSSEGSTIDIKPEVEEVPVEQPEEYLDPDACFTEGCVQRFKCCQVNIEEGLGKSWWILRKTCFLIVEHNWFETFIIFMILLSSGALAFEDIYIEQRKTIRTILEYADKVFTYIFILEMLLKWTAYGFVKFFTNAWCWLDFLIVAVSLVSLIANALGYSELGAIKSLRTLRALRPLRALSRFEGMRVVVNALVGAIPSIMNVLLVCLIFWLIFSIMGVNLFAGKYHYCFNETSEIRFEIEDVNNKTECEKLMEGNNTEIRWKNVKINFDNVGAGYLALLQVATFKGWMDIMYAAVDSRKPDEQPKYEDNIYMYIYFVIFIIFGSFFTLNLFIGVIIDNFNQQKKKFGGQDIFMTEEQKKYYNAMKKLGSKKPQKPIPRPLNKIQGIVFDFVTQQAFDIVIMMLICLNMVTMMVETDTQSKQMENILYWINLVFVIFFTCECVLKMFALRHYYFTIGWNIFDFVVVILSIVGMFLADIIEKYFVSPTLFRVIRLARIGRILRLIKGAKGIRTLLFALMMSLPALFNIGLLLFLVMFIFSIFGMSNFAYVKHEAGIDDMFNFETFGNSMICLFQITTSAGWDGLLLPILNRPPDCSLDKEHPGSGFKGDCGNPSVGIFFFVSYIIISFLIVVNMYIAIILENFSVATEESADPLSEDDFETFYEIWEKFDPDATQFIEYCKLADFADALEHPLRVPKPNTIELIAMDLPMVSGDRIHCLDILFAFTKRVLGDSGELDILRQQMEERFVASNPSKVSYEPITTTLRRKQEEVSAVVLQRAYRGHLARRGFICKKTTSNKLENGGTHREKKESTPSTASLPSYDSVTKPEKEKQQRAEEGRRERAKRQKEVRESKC
T3 sequence (Q9NY46 whole entry): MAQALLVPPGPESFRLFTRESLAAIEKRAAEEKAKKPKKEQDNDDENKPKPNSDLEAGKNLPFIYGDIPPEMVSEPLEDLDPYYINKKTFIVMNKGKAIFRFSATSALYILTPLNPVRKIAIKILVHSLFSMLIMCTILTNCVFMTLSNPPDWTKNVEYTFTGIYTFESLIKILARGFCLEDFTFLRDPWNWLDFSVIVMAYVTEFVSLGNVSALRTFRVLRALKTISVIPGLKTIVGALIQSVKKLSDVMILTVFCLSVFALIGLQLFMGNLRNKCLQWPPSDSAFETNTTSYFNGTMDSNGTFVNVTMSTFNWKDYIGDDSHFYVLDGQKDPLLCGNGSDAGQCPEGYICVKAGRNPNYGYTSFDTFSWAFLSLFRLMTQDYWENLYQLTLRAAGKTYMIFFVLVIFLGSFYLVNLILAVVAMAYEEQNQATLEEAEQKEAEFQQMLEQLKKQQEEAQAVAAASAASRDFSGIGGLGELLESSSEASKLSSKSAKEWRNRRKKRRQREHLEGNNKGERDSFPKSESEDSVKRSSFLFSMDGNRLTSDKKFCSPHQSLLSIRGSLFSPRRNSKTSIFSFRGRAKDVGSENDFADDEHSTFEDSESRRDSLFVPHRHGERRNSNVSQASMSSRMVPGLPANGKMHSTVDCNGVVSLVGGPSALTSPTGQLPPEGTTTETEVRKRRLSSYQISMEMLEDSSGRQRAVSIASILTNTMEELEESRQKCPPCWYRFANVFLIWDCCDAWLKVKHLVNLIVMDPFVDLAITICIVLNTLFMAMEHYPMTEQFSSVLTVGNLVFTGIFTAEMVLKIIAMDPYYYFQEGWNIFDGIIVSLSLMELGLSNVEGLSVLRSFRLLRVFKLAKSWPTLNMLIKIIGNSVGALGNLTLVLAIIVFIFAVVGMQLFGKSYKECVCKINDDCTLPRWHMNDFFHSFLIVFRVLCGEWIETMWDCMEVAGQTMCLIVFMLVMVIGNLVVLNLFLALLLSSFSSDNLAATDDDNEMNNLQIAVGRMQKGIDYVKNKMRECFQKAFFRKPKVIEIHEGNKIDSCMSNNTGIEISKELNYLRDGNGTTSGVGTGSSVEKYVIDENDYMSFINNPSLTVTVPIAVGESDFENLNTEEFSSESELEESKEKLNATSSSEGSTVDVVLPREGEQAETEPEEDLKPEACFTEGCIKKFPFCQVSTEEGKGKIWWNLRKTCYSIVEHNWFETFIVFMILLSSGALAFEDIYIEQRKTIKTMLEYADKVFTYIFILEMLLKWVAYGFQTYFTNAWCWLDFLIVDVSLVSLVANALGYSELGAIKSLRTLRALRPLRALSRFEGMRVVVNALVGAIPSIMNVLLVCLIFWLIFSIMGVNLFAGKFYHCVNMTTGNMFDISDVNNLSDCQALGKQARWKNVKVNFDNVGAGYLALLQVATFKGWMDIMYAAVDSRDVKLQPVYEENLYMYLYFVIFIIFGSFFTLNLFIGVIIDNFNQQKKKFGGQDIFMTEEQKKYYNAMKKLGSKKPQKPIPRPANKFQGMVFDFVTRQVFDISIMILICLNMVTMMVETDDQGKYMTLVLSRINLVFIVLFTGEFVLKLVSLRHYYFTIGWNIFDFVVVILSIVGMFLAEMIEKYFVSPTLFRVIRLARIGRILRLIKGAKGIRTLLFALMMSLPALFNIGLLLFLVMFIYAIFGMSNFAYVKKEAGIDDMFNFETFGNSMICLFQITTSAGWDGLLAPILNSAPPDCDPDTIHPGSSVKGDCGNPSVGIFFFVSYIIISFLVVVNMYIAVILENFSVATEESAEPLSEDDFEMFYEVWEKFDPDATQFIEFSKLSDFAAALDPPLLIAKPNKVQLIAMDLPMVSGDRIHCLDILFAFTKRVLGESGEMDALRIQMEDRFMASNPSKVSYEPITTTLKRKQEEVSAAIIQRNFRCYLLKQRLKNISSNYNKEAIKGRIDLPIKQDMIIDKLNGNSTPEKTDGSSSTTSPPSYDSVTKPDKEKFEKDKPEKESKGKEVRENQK
T1 sequence (O75762 whole entry): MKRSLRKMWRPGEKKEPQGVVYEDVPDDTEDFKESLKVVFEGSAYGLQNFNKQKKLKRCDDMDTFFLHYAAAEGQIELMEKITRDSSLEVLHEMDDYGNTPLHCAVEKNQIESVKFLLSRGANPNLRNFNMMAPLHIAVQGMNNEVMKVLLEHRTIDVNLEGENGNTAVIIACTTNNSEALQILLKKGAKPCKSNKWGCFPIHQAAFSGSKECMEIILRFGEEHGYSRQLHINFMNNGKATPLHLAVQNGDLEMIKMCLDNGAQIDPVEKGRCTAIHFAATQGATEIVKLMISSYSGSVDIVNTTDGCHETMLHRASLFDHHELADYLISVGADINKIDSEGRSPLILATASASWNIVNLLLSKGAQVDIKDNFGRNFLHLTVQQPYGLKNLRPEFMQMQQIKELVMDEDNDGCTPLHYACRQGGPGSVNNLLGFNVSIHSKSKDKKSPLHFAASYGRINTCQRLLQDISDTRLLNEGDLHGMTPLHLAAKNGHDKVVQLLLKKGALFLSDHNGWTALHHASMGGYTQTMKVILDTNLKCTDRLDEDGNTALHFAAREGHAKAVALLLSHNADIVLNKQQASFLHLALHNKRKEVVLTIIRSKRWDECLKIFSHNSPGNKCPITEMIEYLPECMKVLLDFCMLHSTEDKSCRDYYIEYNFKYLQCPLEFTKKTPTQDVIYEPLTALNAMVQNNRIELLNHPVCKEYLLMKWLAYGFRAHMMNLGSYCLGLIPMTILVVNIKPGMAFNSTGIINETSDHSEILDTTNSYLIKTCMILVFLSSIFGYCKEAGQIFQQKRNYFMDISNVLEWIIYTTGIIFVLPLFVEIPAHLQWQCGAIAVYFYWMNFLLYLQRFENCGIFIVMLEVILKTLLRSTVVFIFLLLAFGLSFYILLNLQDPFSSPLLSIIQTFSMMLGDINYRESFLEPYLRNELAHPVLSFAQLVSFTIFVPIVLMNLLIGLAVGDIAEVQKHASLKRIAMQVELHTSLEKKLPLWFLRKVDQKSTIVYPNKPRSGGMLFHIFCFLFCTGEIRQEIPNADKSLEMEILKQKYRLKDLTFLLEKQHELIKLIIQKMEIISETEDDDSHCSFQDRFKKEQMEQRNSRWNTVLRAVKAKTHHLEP

CC(=O)N[C@@H](C(=O)N1CCN(c2cccc(OC(F)(F)F)c2)CC1)c1ccccc1 [(R)-32, (R)-N-(2-Oxo-1-phenyl-2-(4-(3-(trifluoromethoxy)phenyl)piperazin-1-yl)ethyl)acetamide]
ED50 [1]: 26.5 mg/kg
inhibition at 10 µM [2]: 9.6%
inhibition at 1 µM [3, 6]: 1.61%
inhibition at 1 µM [3, 7]: 2.91%
inhibition at 1 µM [3, 8]: 0.31%
inhibition at 10 µM [3, 6]: 1.2%
inhibition at 10 µM [3, 7]: -0.28%
inhibition at 10 µM [3, 8]: 2.68%
inhibition at 100 µM [3, 6]: 31%
inhibition at 100 µM [3, 7]: 24%
inhibition at 100 µM [3, 8]: 38%
inhibition at 1 µM [3, 9]: 1.92%
inhibition at 1 µM [3, 10]: 1.74%
inhibition at 1 µM [3, 11]: 2.11%
inhibition at 10 µM [3, 9]: 41.9%
inhibition at 10 µM [3, 10]: 45.3%
inhibition at 10 µM [3, 11]: 38.6%
inhibition at 100 µM [3, 9]: 97.6%
inhibition at 100 µM [3, 10]: 97.9%
inhibition at 100 µM [3, 11]: 97.4%
inhibition at 1 µM [4, 12]: -3.38%
inhibition at 1 µM [4, 13]: -7.33%
inhibition at 1 µM [4, 14]: 0.56%
inhibition at 10 µM [4, 12]: -3.18%
inhibition at 10 µM [4, 13]: -8.46%
inhibition at 10 µM [4, 14]: 2.11%
inhibition at 100 µM [4, 12]: 6.75%
inhibition at 100 µM [4, 13]: 5.68%
inhibition at 100 µM [4, 14]: 7.82%
inhibition at 1 µM [4, 15]: -2.78%
inhibition at 1 µM [4, 16]: -5.59%
inhibition at 1 µM [4, 17]: 0.03%
inhibition at 10 µM [4, 15]: 39.5%
inhibition at 10 µM [4, 16]: 42.1%
inhibition at 10 µM [4, 17]: 37%
inhibition at 100 µM [4, 15]: 99.1%
inhibition at 100 µM [4, 16]: 99.6%
inhibition at 100 µM [4, 17]: 98.6%
inhibition at 1 µM [5, 18]: -5.14%
inhibition at 1 µM [5, 19]: -8.4%
inhibition at 1 µM [5, 20]: -1.89%
inhibition at 10 µM [5, 18]: -10.8%
inhibition at 10 µM [5, 19]: -14.4%
inhibition at 10 µM [5, 20]: -7.25%
inhibition at 100 µM [5, 18]: -0.11%
inhibition at 100 µM [5, 19]: -1.89%
inhibition at 100 µM [5, 20]: 1.68%
inhibition at 1 µM [5, 21]: -4.59%
inhibition at 1 µM [5, 22]: -10.1%
inhibition at 1 µM [5, 23]: 0.93%
inhibition at 10 µM [5, 21]: 39.9%
inhibition at 10 µM [5, 22]: 53%
inhibition at 10 µM [5, 23]: 26.9%
inhibition at 100 µM [5, 21]: 108%
inhibition at 100 µM [5, 22]: 121%
inhibition at 100 µM [5, 23]: 95.2%
